For test [1], the target named is human A2A adenosine receptor (Homo sapiens, UniProt P29274). Description: Radioligand binding, human A2A AR (Table 1). The following applies: for inhibition at 10 µM: read-out: A2A % inhib.
Test [2] has as its target T1, human A1 adenosine receptor (Homo sapiens, UniProt P30542).
T1 sequence (P30542 1-326): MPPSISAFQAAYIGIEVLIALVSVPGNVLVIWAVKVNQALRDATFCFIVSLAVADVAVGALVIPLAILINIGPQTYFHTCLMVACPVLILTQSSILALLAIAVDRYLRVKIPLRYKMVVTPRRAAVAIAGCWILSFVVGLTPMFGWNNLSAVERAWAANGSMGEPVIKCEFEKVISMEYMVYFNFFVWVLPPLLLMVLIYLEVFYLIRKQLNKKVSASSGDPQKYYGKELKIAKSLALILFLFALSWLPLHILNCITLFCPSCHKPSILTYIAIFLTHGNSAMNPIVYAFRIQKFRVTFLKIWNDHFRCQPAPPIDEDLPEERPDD
Description: Radioligand binding, human A1 AR, CHO membranes (Table 1). The following applies: for A1 % inhib.: species H (human), percent in parentheses, concentration not marked.

The target in test [3] is T2, mouse A3 adenosine receptor (Mus musculus, UniProt Q61618).
T2 sequence (Q61618 1-319): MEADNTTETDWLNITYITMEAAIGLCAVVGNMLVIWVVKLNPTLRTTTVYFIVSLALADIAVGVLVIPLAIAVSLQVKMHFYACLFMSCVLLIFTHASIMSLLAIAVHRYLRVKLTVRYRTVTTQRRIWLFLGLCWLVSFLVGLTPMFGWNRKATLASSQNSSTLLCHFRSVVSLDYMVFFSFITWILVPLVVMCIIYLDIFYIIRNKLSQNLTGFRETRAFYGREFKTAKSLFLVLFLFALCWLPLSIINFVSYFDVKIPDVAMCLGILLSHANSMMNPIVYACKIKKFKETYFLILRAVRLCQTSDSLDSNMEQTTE
Description: Competition radioligand binding, mouse A3 AR, HEK293 membranes (Table 1). The following applies: for Ki: A3 Ki, species M (mouse), [125I]I-AB-MECA; for Selectivity A1/A3: mouse.

Test [4] deals with mouse A2A adenosine receptor (Mus musculus, UniProt Q60613). Description: Competition radioligand binding, mouse A2A AR, HEK293 membranes (Table 1). The following applies: for inhibition at 100 µM: read-out: A2A % inhib.
Sequence of mouse A2A adenosine receptor (Q60613 whole entry): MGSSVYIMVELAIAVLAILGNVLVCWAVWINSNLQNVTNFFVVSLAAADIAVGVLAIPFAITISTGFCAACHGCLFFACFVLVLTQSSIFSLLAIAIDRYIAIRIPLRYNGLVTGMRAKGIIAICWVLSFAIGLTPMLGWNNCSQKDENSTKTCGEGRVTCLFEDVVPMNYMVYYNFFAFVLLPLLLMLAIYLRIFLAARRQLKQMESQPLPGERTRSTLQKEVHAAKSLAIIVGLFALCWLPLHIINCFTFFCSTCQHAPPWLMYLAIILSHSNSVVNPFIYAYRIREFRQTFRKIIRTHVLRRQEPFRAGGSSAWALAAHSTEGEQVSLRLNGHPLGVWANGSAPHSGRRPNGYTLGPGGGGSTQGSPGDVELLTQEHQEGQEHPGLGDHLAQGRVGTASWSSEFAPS
Test [5] addresses T3, mouse A1 adenosine receptor (Mus musculus, UniProt Q60612).
T3 sequence (Q60612 1-326): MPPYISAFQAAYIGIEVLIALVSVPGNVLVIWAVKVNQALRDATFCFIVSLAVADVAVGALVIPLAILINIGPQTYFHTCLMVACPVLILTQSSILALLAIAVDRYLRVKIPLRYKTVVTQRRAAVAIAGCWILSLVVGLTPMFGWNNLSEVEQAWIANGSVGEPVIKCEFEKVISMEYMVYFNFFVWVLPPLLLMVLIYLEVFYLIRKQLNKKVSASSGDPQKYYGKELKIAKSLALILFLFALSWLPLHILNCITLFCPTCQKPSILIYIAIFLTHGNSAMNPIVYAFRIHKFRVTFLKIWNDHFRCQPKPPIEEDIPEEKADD
Nature of the test: Competition radioligand binding, mouse A1 AR, HEK293 membranes (Table 1).

Test [6] deals with T4, human A3 adenosine receptor (Homo sapiens, UniProt P0DMS8).
T4 sequence (P0DMS8 1-318): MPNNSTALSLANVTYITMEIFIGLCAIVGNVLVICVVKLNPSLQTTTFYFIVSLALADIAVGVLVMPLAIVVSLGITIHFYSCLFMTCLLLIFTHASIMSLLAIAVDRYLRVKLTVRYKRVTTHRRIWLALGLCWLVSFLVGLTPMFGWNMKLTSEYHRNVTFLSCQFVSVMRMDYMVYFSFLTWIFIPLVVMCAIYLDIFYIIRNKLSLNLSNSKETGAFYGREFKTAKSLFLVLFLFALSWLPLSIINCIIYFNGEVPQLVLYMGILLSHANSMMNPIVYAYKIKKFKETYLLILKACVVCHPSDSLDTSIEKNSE
Description: [125I]I-AB-MECA binding, human A3 AR, CHO membranes (Table 1). The following applies: for Ki: A3 Ki, species H (human); for Selectivity A1/A3: human.

The target of test [7] is T5, hA1AR (Homo sapiens, UniProt P30542).
T5 construct: expressed in transfected cells; host or cells: CHO
T5 sequence (P30542 1-326): T1 sequence (P30542 1-326)
Nature of the test: Binding at hA1AR, CHO membranes (Example 7). The following applies: read-out: % inhibition hA1.
Description: (§1) CHO cells stably expressing the recombinant hA1, hA3, and rA3Rs, and HEK-293 cells stably expressing the hA2AAR were cultured in Dulbecco's modified Eagle medium (DMEM) and F12 (1:1) supplemented with 10% fetal bovine serum, 100 units/mL penicillin, 100 μg/mL streptomycin, and 2 μmol/mL glutamine. In addition, 800 μg/mL geneticin was added to the A2A media, while 500 μg/mL hygromycin was added to the A1 and A3 media. After harvesting, cells were homogenized and suspended in PBS. Cells were then centrifuged at 240 g for 5 min, and the pellet was resuspended in 50 mM Tris-HCl buffer (pH 7.5) containing 10 mM MgCl2. The suspension was homogenized and was then ultra-centrifuged at 14,330 g for 30 min at 4° C. […] The protein concentration was measured using the BCA Protein Assay Kit from Pierce Biotechnology, Inc. (Rockford, Ill.).
(§2) Into each tube in the binding assay was added 50 μL of increasing concentrations of the test ligand in Tris-HCl buffer (50 mM, pH 7.5) containing 10 mM MgCl2, 50 μL of the appropriate agonist radioligand, and finally 100 μL of membrane suspension. […] For the A2AAR (20 μg/tube) the radioligand used was [^3H]53 (10 nM). […] Nonspecific binding was determined using a final concentration of 10 μM 51 diluted with the buffer. The mixtures were incubated at 25° C. for 60 min in a shaking water bath. Binding reactions were terminated by filtration through Brandel GF/B filters under a reduced pressure using a M-24 cell harvester (Brandel, Gaithersburg, Md.). Filters were washed three times with 3 mL of 50 mM ice-cold Tris-HCl buffer (pH 7.5). […] Filters for A3AR binding were counted using a Packard COBRA™ II γ-counter. The Ki values were determined using GraphPad Prism for all assays.

The target of test [8] is T6, hA2AAR (Homo sapiens, UniProt P29274).
T6 construct: expressed in transfected cells
T6 sequence (P29274 whole entry): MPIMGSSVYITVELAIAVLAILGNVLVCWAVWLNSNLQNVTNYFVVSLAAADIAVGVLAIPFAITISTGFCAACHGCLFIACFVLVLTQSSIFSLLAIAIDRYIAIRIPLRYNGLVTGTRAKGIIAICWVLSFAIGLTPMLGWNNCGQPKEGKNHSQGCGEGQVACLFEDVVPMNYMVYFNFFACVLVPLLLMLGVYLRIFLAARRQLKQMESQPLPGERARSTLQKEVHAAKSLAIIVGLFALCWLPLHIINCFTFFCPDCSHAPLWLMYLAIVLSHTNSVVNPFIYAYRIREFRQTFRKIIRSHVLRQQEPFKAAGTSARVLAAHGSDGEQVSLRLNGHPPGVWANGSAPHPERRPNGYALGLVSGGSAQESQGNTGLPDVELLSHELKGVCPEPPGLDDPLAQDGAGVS
Description: Binding at hA2AAR, HEK-293 membranes (Example 7). The following applies: read-out: % inhibition hA2A. The protocol:
After harvesting, cells were homogenized and suspended in PBS.
Nonspecific binding was determined using a final concentration of 10 μM 51 diluted with the buffer.

The target in test [9] is T7, hA3AR (Homo sapiens, UniProt P0DMS8).
T7 construct: expressed in transfected cells; host or cells: CHO
T7 sequence (P0DMS8 1-318): T4 sequence (P0DMS8 1-318)
Nature of the test: Binding at hA3AR, CHO membranes (Example 7). The following applies: read-out: Affinity (Ki, nM) hA3.
Description: as §1, §2

A value given as a limit tells only on which side of the number the result lay.

Sequence of human A2A adenosine receptor (P29274 whole entry): as above

As to `CNC(=O)C12CC1C(n1cnc3c(NCc4cccc(Cl)c4)nc(C#CCCCC(=O)OC)nc31)C(O)C2O` (stereo not drawn) [Compound 6, (1′S,2′R,3′S,4′S,5′S)-4′-[6-(3-Chlorobenzylamino)-2-(5-methoxycarbonyl-1-pentynyl)-9-yl]-2′,3′-dihydroxybicyclo[3.1.0]hexane-1′-carboxylic acid N-methylamide], the inhibition at 10 µM in [1] was found to be 49%. Moreover, the Ki (usually a dissociation constant, usually derived from enzyme kinetics or from competition with a known ligand) is 482 ± 23 nM in [2], 4.65 ± 0.53 nM in [3] and 1340 ± 330 nM in test [5]. Also, in test [4], the inhibition at 100 µM was found to be 50%.

With `CNC(=O)C12CC1C(n1cnc3c(NCc4cccc(Cl)c4)nc(C#CCCC(=O)NCCN)nc31)C(O)C2O` (stereo not drawn) [Compound 37, (1′S, 2′R, 3′S, 4′S, 5′S)-4′-[6-(3-Chlorobenzylamino) 2-(4-(β-aminoethylaminocarbonyl)-1-butynyl)-9-yl]-2′,3′-dihydroxybicyclo[3.1.0]hexane-1′-carboxylic acid N-methylamide], the Ki in test [1] stood at 550 ± 83 nM. In addition, the A1 % inhib. entry in test [2] is “(25 ± 12%)”. Also, in test [6], the Ki was 2.5 ± 0.5 nM and the “Selectivity A1/A3” value is reported as “up to 1900”.

Turning to `CNC(=O)C12CC1C(n1cnc3c(NCc4cccc(C#CCCCC(=O)NCCN)c4)nc(Cl)nc31)C(O)C2O` (stereo not drawn) [Compound 10], the inhibition at 10 µM in test [1] was found to be 58%. Also, the inhibitory constant (Ki) in test [2] was 271 ± 23 nM; in test [6], 5.21 nM; in test [3], 11.9 ± 2.4 nM; in test [5] it was 151 ± 18 nM. Further, the entries for the “Selectivity A1/A3” value in [6] and in test [3] were 52 and 13, respectively. Further, the inhibition at 100 µM in test [4] is 39%.

On to `CNC(=O)C12CC1C(n1cnc3c(NCc4cccc(C#CCCCC(=O)O)c4)nc(Cl)nc31)C(O)C2O` (stereo not drawn) [Compound 9], for which the inhibition at 10 µM in test [1] came to 14%. Moreover, the inhibition at 100 µM in [4] was 5%.

For the molecule `CNC(=O)C12CC1C(n1cnc3c(NCc4cc(OC)ccc4OC)nc(I)nc31)C(O)C2O` (stereo not drawn) [Compound 2, (1′S,2′R,3′S,4′S,5′S)-4′-[6-(2,5-Dimethoxybenzylamino)-2-iodopurin-9-yl]-2′,3′-dihydroxybicyclo[3.1.0]hexane-1′-carboxylic acid N-methylamide], in test [1], the inhibition at 10 µM turned out to be 35%. Also, in test [4], the inhibition at 100 µM stood at 14%.

As to `CNC(=O)C12CC1C(n1cnc3c(NCc4cccc(Cl)c4)nc(C#CCCC(=O)NCCNC(=O)CCCCC4SCC5NC(=O)NC54)nc31)C(O)C2O` (stereo not drawn) [Compound 42, (1′S,2′R,3′S,4′S,5′S)-4′-[6-(3-Chlorobenzylamino)-2-(N-biotinyl(β-aminoethylaminocarbonyl)-1-butynyl)-9-yl]-2′,3′-dihydroxybicyclo[3.1.0]hexane-1′-carboxylic acid N-methylamide], in test [2], the A1 % inhib. entry was “(13 ± 6%)”. In [6], this molecule gave a Ki of 36.4 ± 5.6 nM.

In the case of `CNC(=O)C12CC1C(n1cnc3c(NCc4cccc(Cl)c4)nc(C#CCCCCC(=O)O)nc31)C(O)C2O` (stereo not drawn) [Compound 34], in test [2], the A1 % inhib. result is “(5 ± 3%)”. In test [6], this molecule displayed an inhibition constant (Ki) of 12.4 ± 1.8 nM.

In the case of `CNC(=O)C12CC1C(n1cnc3c(NCc4cccc(Cl)c4)nc(C#CCCCC(=O)O)nc31)C(O)C2O` (stereo not drawn) [Compound 7, (1′S,2′R,3′S,4′S,5′S)-4′-[6-(3-chlorobenzylamino)-2-(5-hydroxycarbonyl-1-pentynyl)-9-yl]-2′,3′-dihydroxybicyclo[3.1.0]hexane-1′-carboxylic acid N-methylamide], in test [1], the inhibition at 10 µM is 43%. For the same molecule, the inhibition at 100 µM in test [4] amounted to 8%.

With `CCN1C(=CC=CC=CC2=[N+](CCCCCC(=O)NCCNC(=O)CCC#Cc3nc(NCc4cccc(Cl)c4)c4ncn(C5C(O)C(O)C6(C(=O)NC)CC56)c4n3)c3ccc(S(=O)(=O)[O-])cc3C2(C)C)C(C)(C)c2cc(S(=O)(=O)O)ccc21` (stereo not drawn) [Compound 44, (1′S,2′R,3′S,4′S,5′S)-4′-[6-(3-Chlorobenzylamino)-2-(N-Cyanine(β-aminoethylaminocarbonyl)-1-butynyl)-9-yl]-2′,3′-dihydroxybicyclo[3.1.0]hexane-1′-carboxylic acid N-methylamide], the A1 % inhib. result in [2] is recorded as “(10 ± 4%)”.

Regarding `CNC(=O)C12CC1C(n1cnc3c(NCc4cccc(Cl)c4)nc(C#CCCC(=O)NCCNCCN)nc31)C(O)C2O` (stereo not drawn) [Compound 41], the figures for the Ki in test [1] and in test [6] were 890 ± 110 nM and 15.4 ± 4.4 nM, respectively. Moreover, in test [2], the A1 % inhib. result was “(14 ± 8%)”.

In the case of `CNC(=O)C12CC1C(n1cnc3c(NCC(c4ccccc4)c4ccccc4)nc(Cl)nc31)C(O)C2O` (stereo not drawn) [Compound 18], the figures for the Ki in test [3], in test [4] and in test [5] were 1.67 ± 0.09 nM, 1810 ± 581 nM and 6.83 ± 1.5 nM, respectively. In test [3], the “Selectivity A1/A3” value is 4.1.

Consider `CNC(=O)C12CC1C(n1cnc3c(NCc4cccc(Cl)c4)nc(C#CCCC(=O)NCCCN)nc31)C(O)C2O` (stereo not drawn) [Compound 39, (1′S, 2′R, 3′S, 4′S, 5′S)-4′-[6-(3-Chlorobenzylamino)-2-(4-(β-aminopropylaminocarbonyl)-1-butynyl)-9-yl]-2′,3′-dihydroxybicyclo[3.1.0]hexane-1′-carboxylic acid N-methylamide], for which the values for the inhibition constant Ki in test [1] and in [6] were 979 ± 181 nM and 3.1 ± 0.4 nM, respectively. Also, in test [2], the A1 % inhib. entry is recorded as “(16 ± 4%)”.

Regarding `CNC(=O)C12CC1C(n1cnc3c(NCc4cccc(C#CCCCC(=O)NCCNC(C)=O)c4)nc(Cl)nc31)C(O)C2O` (stereo not drawn) [Compound 11], the inhibition at 10 µM in test [1] came out at 80%. Further, the inhibition at 100 µM in test [4] was determined as 68%.

Turning to `CNC(=O)C12CC1C(n1cnc3c(NCc4cccc(Cl)c4)nc(C#CCCCCC(=O)NCCN)nc31)C(O)C2O` (stereo not drawn) [Compound 38, (1′S,2′R,3′S,4′S,5′S)-4′-[6-(3-Chlorobenzylamino)-2-(6-(β-aminoethylaminocarbonyl)-1-hexynyl)-9-yl]-2′,3′-dihydroxybicyclo[3.1.0]hexane-1′-carboxylic acid N-methylamide], the Ki worked out at 277 ± 33 nM in [1] and 3.4 ± 0.7 nM in test [6]. Besides, in test [2], the A1 % inhib. entry is “(21 ± 6%)”.

Consider `CNC(=O)C12CC1C(n1cnc3c(NCc4cccc(Cl)c4)nc(I)nc31)C(O)C2O` (stereo not drawn) [Compound 1], for which the Ki in test [1] is above 10000 nM. In test [4], the inhibition at 100 µM turned out to be 40%.

In the case of `CNC(=O)[C@@]12C[C@@H]1[C@@H](n1cnc3c(NC)nc(C#Cc4ccc(C(C)=O)cc4)nc31)[C@H](O)[C@@H]2O` [Compound 323, (1S,2R,3S,4R,5S)-4-(2-((4-Acetylphenyl)ethynyl)-6-(methylamino)-9H-purin-9-yl)-2,3-dihydroxy-N-methylbicyclo[3.1.0]hexane-1-carboxamide], the inhibition at 10 µM in test [7] turned out to be 8%; in test [8], 62%. For the same molecule, the Ki in test [9] stood at 2.57 ± 0.78 nM.

On to `CNC(=O)[C@@]12C[C@@H]1[C@@H](n1cnc3c(NC)nc(C#Cc4ccc(Cl)cc4)nc31)[C@H](O)[C@@H]2O` [Compound 316, (1S,2R,3S,4R,5S)-4-(2-((4-Chlorophenyl)ethynyl)-6-(methylamino)-9H-purin-9-yl)-2,3-dihydroxy-N-methylbicyclo[3.1.0]hexane-1-carboxamide], for which the results for the inhibition at 10 µM in test [7] and in [8] were 13% and 30%, respectively. The Ki in test [9] is 1.22 ± 0.31 nM.

The record behind these values is patent US8916570B2 (The United States of America, as represented by the …, priority 2008, dated 2014).
